Molecular target: T1, IL-17A/A (Homo sapiens, UniProt Q16552)
T1 construct: purchased Genscript Z03228
T1 sequence (Q16552 24-155): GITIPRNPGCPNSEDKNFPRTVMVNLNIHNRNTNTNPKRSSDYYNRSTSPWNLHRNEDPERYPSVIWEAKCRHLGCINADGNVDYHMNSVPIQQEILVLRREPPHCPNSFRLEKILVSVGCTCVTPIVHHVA
Test: IL-17A/A HEK-Blue cell assay
Assay type: cell-based
Details: HEK-Blue IL-17A reporter cell line (HEK 293), IL-17A/A stimulation, 20 hours incubation, SEAP read at A630
Procedure, shortened: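 IC50 came from a 4-parameter fit of SEAP read at A630 (Quanti-Blue). Compound was titrated to a top final concentration of 10, 1 or 0.3 uM with 0.1% final DMSO and added just before IL-17A/A. Incubation lasted 20 hours in HEK293 cells engineered with IL-17RA, IL-17RC, Act1 and an NFκB-SEAP reporter.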

IC50 [nM]	Structure (SMILES)
100 to 1000	O=C(N[C@H](c1cn2nc(CC3C[C@@H](C(F)(F)F)CNC3=O)ccc2n1)C1CCC(F)(F)CC1)c1conc1C(F)(F)F (stereo partly drawn) [Compound 114, N-((1S)-(4,4-difluorocyclohexyl)(6-(((5R)-2-oxo-5-(trifluoromethyl)piperidin-3-yl)methyl)imidazo[1,2-b]pyridazin-2-yl)methyl)-3-(trifluoromethyl)isoxazole-4-carboxamide]
< 100	CCn1nccc1C(=O)N[C@H](c1cn2nc(CC3C[C@@H](C(F)(F)F)CNC3=O)c(C(C)C)cc2n1)C1CCC(F)(F)CC1 (stereo partly drawn) [Compound 180, N-((1S)-(4,4-difluorocyclohexyl)(7-isopropyl-6-(((5R)-2-oxo-5-(trifluoromethyl)piperidin-3-yl)methyl)imidazo[1,2-b]pyridazin-2-yl)methyl)-1-ethyl-1H-pyrazole-5-carboxamide]
100 to 1000	CCn1nccc1C(=O)NC(c1cn2ncc(CC3CC(F)(F)CNC3=O)cc2n1)C1CCC(C)CC1 (single isomer, unassigned) [Compound 211]
100 to 1000	CCn1nccc1C(=O)NC(c1cn2nc(CC3CC(F)(F)CNC3=O)ccc2n1)C1CCC(C)CC1 (single isomer, unassigned) [Compound 26]
< 100	CCn1nccc1C(=O)N[C@H](c1cn2nc(CC3CC(F)(F)CNC3=O)c(N(C)C)cc2n1)C1CCC(F)(F)CC1 (single isomer, unassigned) [Compound 87]
100 to 1000	CCn1nccc1C(=O)N[C@H](c1cn2nc(CC3C[C@@H](C(F)(F)F)CNC3=O)ccc2n1)[C@H]1CC[C@H](C)CC1 (stereo partly drawn) [Compound 97, 1-ethyl-N-((1S)-((1R.4S)-4-methylcyclohexyl)(6-(((5R)-2-oxo-5-(trifluoromethyl)piperidin-3-yl)methyl)imidazo[1,2-b]pyridazin-2-yl)methyl)-1H-pyrazole-5-carboxamide]
< 100	CCn1nccc1C(=O)N[C@H](c1cn2nc(CC3C[C@@H](C(F)(F)F)NC3=O)ccc2n1)C1CCCCCC1 (single isomer, unassigned) [Compound 5]
> 1000	CCn1nccc1C(=O)N[C@H](c1cn2nc(CC3CC(C(F)F)CNC3=O)ccc2n1)C(C1CC1)C1CC1 (mixture of isomers) [Compound 41, N-((1S)-2,2-dicyclopropyl-1-(6-((5-(difluoromethyl)-2-oxopiperidin-3-yl)methyl)imidazo[1,2-b]pyridazin-2-yl)ethyl)-1-ethyl-1H-pyrazole-5-carboxamide]
100 to 1000	CCn1nccc1C(=O)N[C@H](c1cn2ncc(CC3C[C@@H](C(F)(F)F)NC3=O)cc2n1)C(C1CC1)C1CC1 (single isomer, unassigned) [Compound 202]
< 100	CCn1nccc1C(=O)N[C@H](c1cn2nc(CC3C[C@@H](C(F)(F)F)CNC3=O)c(N(C)CC(F)(F)F)cc2n1)C1CCC(F)(F)CC1 (single isomer, unassigned) [Compound 181]
100 to 1000	Cn1c(C#N)ccc1C(=O)N[C@H](c1cn2nc(CC3C[C@@H](C(F)(F)F)CNC3=O)ccc2n1)C1CCC(F)(F)CC1 (stereo partly drawn) [Compound 133, 5-cyano-N-((1S)-(4,4-difluorocyclohexyl)(6-(((5R)-2-oxo-5-(trifluoromethyl)piperidin-3-yl)methyl)imidazo[1,2-b]pyridazin-2-yl)methyl)-1-methyl-1H-pyrrole-2-carboxamide]
> 1000	CC[C@@H](c1ccc(F)cc1)[C@H](NC(=O)c1ccnn1CC)c1cn2ncc(CC3C[C@@H](C(F)(F)F)NC3=O)cc2n1 (single isomer, unassigned) [Compound 217]
< 100	CCn1nccc1C(=O)N[C@H](c1cn2ncc(CC3C[C@@H](C(F)(F)F)NC3=O)cc2n1)C1CCC(F)(F)CC1 (single isomer, unassigned) [Compound 204]
100 to 1000	CCn1nccc1C(=O)N[C@H](c1cn2nc(CC3C[C@@H](C(F)(F)F)CNC3=O)c(C)cc2n1)C1CCC(F)(F)CC1 (single isomer, unassigned) [Compound 83]
100 to 1000	CCn1nccc1C(=O)N[C@H](c1cn2nc(CC3C[C@@H](C(F)(F)F)CNC3=O)ccc2n1)C1CCCCCC1 (stereo partly drawn) [Compound 169, N—((S)-cycloheptyl(6-(((3R.5R)-2-oxo-5-(trifluoromethyl)piperidin-3-yl)methyl)imidazo[1,2-b]pyridazin-2-yl)methyl)-1-ethyl-1H-pyrazole-5-carboxamide]
100 to 1000	CCn1nccc1C(=O)N[C@H](c1cn2nc(CC3CC(F)(F)CNC3=O)ccc2n1)C(C1CC1)C1CC1 (single isomer, unassigned) [Compound 28]
100 to 1000	CCn1nccc1C(=O)N[C@H](c1cn2nc(CC3C[C@H](C(F)(F)F)CNC3=O)ccc2n1)C(C1CC1)C1CC1 (stereo partly drawn) [Compound 153, N-((1S)-2,2-dicyclopropyl-1-(6-(((5S)-2-oxo-5-(trifluoromethyl)piperidin-3-yl)methyl)imidazo[1,2-b]pyridazin-2-yl)ethyl)-1-ethyl-1H-pyrazole-5-carboxamide]
100 to 1000	Cc1nonc1C(=O)N[C@H](c1cn2nc(CC3C[C@@H](C(F)(F)F)CNC3=O)ccc2n1)[C@H]1CC[C@H](C)CC1 (stereo partly drawn) [Compound 165, 4-Methyl-N-((1S)-((1R.4S)-4-methylcyclohexyl)(6-(((5R)-2-oxo-5-(trifluoromethyl)piperidin-3-yl)methyl)imidazo[1,2-b]pyridazin-2-yl)methyl)-1,2,5-oxadiazole-3-carboxamide]
< 100	CCn1nccc1C(=O)N[C@H](c1cn2nc(CC3CC(F)(F)CNC3=O)ccc2n1)C1CCCCCC1 (single isomer, unassigned) [Compound 9, N-((1 S)-cycloheptyl(6-((5,5-difluoro-2-oxopiperidin-3-yl)methyl)imidazo[1,2-b]pyridazin-2-yl)methyl)-1-ethyl-1H-pyrazole-5-carboxamide]
100 to 1000	O=C(N[C@H](c1cn2nc(CC3C[C@@H](C(F)(F)F)CNC3=O)ccc2n1)C1CCC(F)(F)CC1)c1nonc1C(F)F (stereo partly drawn) [Compound 115, N-((1S)-(4,4-difluorocyclohexyl)(6-(((5R)-2-oxo-5-(trifluoromethyl)piperidin-3-yl)methyl)imidazo[1,2-b]pyridazin-2-yl)methyl)-4-(difluoromethyl)-1,2,5-oxadiazole-3-carboxamide]
100 to 1000	Cc1nonc1C(=O)N[C@H](c1cn2nc(CC3C[C@@H](C(F)(F)F)CNC3=O)ccc2n1)C1CCC(F)(F)CC1 (stereo partly drawn) [Compound 100, N-((1S)-(4,4-difluorocyclohexyl)(6-(((5R)-2-oxo-5-(trifluoromethyl)piperidin-3-yl)methyl)imidazo[1,2-b]pyridazin-2-yl)methyl)-4-methyl-1,2,5-oxadiazole-3-carboxamide]
100 to 1000	CCn1nccc1C(=O)NC(c1cn2ncc(CC3CCC(C(F)(F)F)NC3=O)cc2n1)C1CCC(C)CC1 (single isomer, unassigned) [Compound 214]
100 to 1000	CCn1nccc1C(=O)N[C@H](c1cn2nc(CC3CC(C(C)(F)F)NC3=O)ccc2n1)C1CCC(F)(F)CC1 (single isomer, unassigned) [Compound 69]
100 to 1000	CCn1nccc1C(=O)N[C@H](c1cn2nc(CC3C[C@@H](C(F)(F)F)CNC3=O)c(N(C)C3CCOCC3)cc2n1)C1CCC(F)(F)CC1 (single isomer, unassigned) [Compound 93]
> 1000	CCn1nccc1C(=O)NC(c1cn2nc(CC3C[C@@H](C(F)(F)F)CNC3=O)ccc2n1)C1CCC2CC2CC1 (single isomer, unassigned) [Compound 174]

Source: patent publication US20250346602A1, “LACTAM SUBSTITUTED IMIDAZOPYRIDAZINE IL-17A MODULATORS AND USES THEREOF” (DICE ALPHA, INC., priority 2022, published 2025)
